Measured values taken from patent publication US5994340A, “Azetidinone derivatives as β-lactamase inhibitors” (SynPhar Laboratories, Inc., priority 1997, dated 1999).
Counter-ions that a name gives are not always drawn. Blank lines part the entries; values can stand above or below the compound they belong to.

Columns and labels:
[1] = target: cephalosporinase from P. aeruginosa (Pseudomonas aeruginosa, UniProt P24735); experiment: β-Lactamase inhibitory activity, spectrophotometric rate assay at 490 nm with nitrocefin as substrate; format: biochemical
Procedure: The inhibitory activities of present compounds (β-lactamase inhibitors) against cephalosporinase from P. aeruginosa was measured by spectrophotometric rate assay using 490 nm and using nitrocefin as a substrate (J. Antimicrob. Chemother., vol. 28, pp 775-776, 1991).

β-lactamase = conditions: suggested by several publications; cited from earlier work
P. aeruginosa CT-137 = experiment: MIC of ceftazidime, microbroth dilution; format: cell-based; conditions: Pseudomonas aeruginosa, CT137; ceftazidime alone, 18 h
Procedure: (§1) The MICs of the antibiotics (e.g., ceftazidime) alone, the MICs of ceftazidime in combination with reference compounds particularly […] (Ref. compd. I) and the MICs of the β-lactamase inhibitors (10 μg/ml) of the present invention in combination with ceftazidime were determined with the same β-lactamase producing bacteria. After incubation in Mueller-Hinton Broth (Difco) at 37° C. for 18 h, the bacterial suspension was diluted and about 10^5 CFU/ml was applied to the drug-containing Mueller-Hinton Broth in each well of 96 well plate. The MICs were recorded after 18 h of incubation at 37° C. on the lowest combinations of drug that inhibited visible growth of bacteria.

P. aeruginosa AU-10 = experiment: MIC of ceftazidime, microbroth dilution; format: cell-based; conditions: Pseudomonas aeruginosa, AU10; ceftazidime alone, 18 h
Procedure: as §1

P. aeruginosa AU-5 = experiment: MIC of ceftazidime, microbroth dilution; format: cell-based; conditions: Pseudomonas aeruginosa, AU5; ceftazidime alone, 18 h
Procedure: as §1

P. aeruginosa CT-144 = experiment: MIC of ceftazidime, microbroth dilution; format: cell-based; conditions: Pseudomonas aeruginosa, CT144; ceftazidime alone, 18 h
Procedure: as §1

P. aeruginosa 46017 = experiment: MIC of ceftazidime, microbroth dilution; format: cell-based; conditions: Pseudomonas aeruginosa, ceftazidime alone, 18 h
Procedure: as §1

P. aeruginosa CT-122 = experiment: MIC of ceftazidime, microbroth dilution; format: cell-based; conditions: Pseudomonas aeruginosa, CT122; ceftazidime alone, 18 h
Procedure: as §1

[2] = system: P. aeruginosa sp 2439 Wt.; experiment: MIC of ceftazidime, microbroth dilution; format: cell-based; conditions: Pseudomonas aeruginosa, SP2439WT.; ceftazidime alone, 18 h
Procedure: as §1

P. aeruginosa 46220 DR-2 = experiment: MIC of ceftazidime, microbroth dilution; format: cell-based; conditions: Pseudomonas aeruginosa, 46220DR2; ceftazidime alone, 18 h
Procedure: as §1

P. aeruginosa M2297 = experiment: MIC of ceftazidime, microbroth dilution; format: cell-based; conditions: Pseudomonas aeruginosa, ceftazidime alone, 18 h
Procedure: as §1

M. morganii 36010 = experiment: MIC of ceftazidime, microbroth dilution; format: cell-based; conditions: Morganella morganii, ceftazidime alone, 18 h
Procedure: as §1

E. cloacae 40054 = experiment: MIC of ceftazidime, microbroth dilution; format: cell-based; conditions: Enterobacter cloacae, 40054, 18 h, read-out: MIC of ceftazidime alone
Procedure: (§2) After incubation in Mueller-Hinton Broth (Difco) at 37° C. for 18 h, the bacterial suspension was diluted and about 10^5 CFU/ml was applied to the drug-containing Mueller-Hinton Broth in each well of 96 well plate. The MICs were recorded after 18 h of incubation at 37° C. on the lowest combinations of drug that inhibited visible growth of bacteria.

E. cloacae MNH-2 = experiment: MIC of ceftazidime, microbroth dilution; format: cell-based; conditions: Enterobacter cloacae, MNH2, 18 h, read-out: MIC of ceftazidime alone
Procedure: as §2

E. cloacae P 99 = experiment: microbe, parasite or virus in culture; format: cell-based; conditions: Enterobacter cloacae, P99, 18 h, read-out: MIC of ceftazidime alone
Procedure: as §2

C. freundii 44032 = experiment: MIC of ceftazidime, microbroth dilution; format: cell-based; conditions: Citrobacter freundii, 44032, 18 h, read-out: MIC of ceftazidime alone
Procedure: as §2, with “[…]. After” for “After”

E. aerogenes S-95 = experiment: MIC of ceftazidime, microbroth dilution; format: cell-based; conditions: Klebsiella aerogenes, S95, 18 h, read-out: MIC of ceftazidime alone
Procedure: as §2, with “[…]. After” for “After”

E. aerogenes 41006 = experiment: MIC of ceftazidime, microbroth dilution; format: cell-based; conditions: Klebsiella aerogenes, 41006, 18 h, read-out: MIC of ceftazidime alone
Procedure: as §2, with “[…]. After” for “After”

C. freundii CT-76 = experiment: MIC of ceftazidime, microbroth dilution; format: cell-based; conditions: Citrobacter freundii, CT76, 18 h, read-out: MIC of ceftazidime alone
Procedure: as §2, with “[…]. After” for “After”

P. aeruginosa L46004 = experiment: MIC of ceftazidime, microbroth dilution; format: cell-based; conditions: Pseudomonas aeruginosa, L46004, 18 h, read-out: MIC of ceftazidime alone
Procedure: as §2, with “[…]. After” for “After”

P. aeruginosa M 1405 = experiment: MIC of ceftazidime, microbroth dilution; format: cell-based; conditions: Pseudomonas aeruginosa, M1405, 18 h, read-out: MIC of ceftazidime alone
Procedure: as §2, with “[…]. After” for “After”

M. morganii 36030 = experiment: MIC of ceftazidime, microbroth dilution; format: cell-based; conditions: Morganella morganii, 36030, 18 h, read-out: MIC of ceftazidime alone
Procedure: as §2, with “[…]. After” for “After”

P. aeruginosa AU-8 = experiment: MIC of ceftazidime, microbroth dilution; format: cell-based; conditions: Pseudomonas aeruginosa, AU8, 18 h, read-out: MIC of ceftazidime alone
Procedure: as §2, with “[…]. After” for “After”

M. morganii 36014 = experiment: MIC of ceftazidime, microbroth dilution; format: cell-based; conditions: Morganella morganii, 36014, 18 h, read-out: MIC of ceftazidime alone
Procedure: as §2, with “[…]. After” for “After”

P. aeruginosa 46012 = experiment: MIC of ceftazidime, microbroth dilution; format: cell-based; conditions: Pseudomonas aeruginosa, 46012, 18 h, read-out: MIC of ceftazidime alone
Procedure: as §2, with “[…]. After” for “After”

P. aeruginosa AU-1 = experiment: MIC of ceftazidime, microbroth dilution; format: cell-based; conditions: Pseudomonas aeruginosa, AU1, 18 h, read-out: MIC of ceftazidime alone
Procedure: as §2, with “[…]. After” for “After”

[3] = system: P. aeruginosa PAO 303 carb-4; experiment: microbe, parasite or virus in culture; format: cell-based; conditions: Pseudomonas aeruginosa, PAO303CARB4, 18 h, read-out: MIC of ceftazidime alone
Procedure: as §2, with “[…]. After” for “After”

[4] = system: P. aeruginosa 46220 DR-2-1; experiment: microbe, parasite or virus in culture; format: cell-based; conditions: Pseudomonas aeruginosa, 46220DR21, 18 h, read-out: MIC of ceftazidime alone
Procedure: as §2, with “[…]. After” for “After”

Sequence of cephalosporinase from P. aeruginosa (P24735 27-397): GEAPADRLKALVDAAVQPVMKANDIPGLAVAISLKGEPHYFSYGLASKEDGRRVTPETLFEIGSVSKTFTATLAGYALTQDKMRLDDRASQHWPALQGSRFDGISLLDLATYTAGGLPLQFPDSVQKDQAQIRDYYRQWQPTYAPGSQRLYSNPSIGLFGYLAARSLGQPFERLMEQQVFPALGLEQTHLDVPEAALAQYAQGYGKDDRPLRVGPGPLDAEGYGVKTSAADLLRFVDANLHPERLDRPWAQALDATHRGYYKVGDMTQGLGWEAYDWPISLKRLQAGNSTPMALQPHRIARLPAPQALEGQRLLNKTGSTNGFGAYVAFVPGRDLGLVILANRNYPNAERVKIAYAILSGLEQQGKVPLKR

IC50 [1]: 800 nM
SMILES: C[C@H]1[C@H](NC(=O)/C(=N/OCCN)c2csc(N)n2)C(=O)N1S(=O)(=O)O [Reference Compound II]

IC50 [1]: 100 nM
SMILES: C[C@H]1[C@H](NC(=O)/C(=N/OC[C@H](N)CCN)c2cccs2)C(=O)N1S(=O)(=O)O [Compound 6]

SMILES: C[C@H]1[C@H](NC(=O)/C(=N\OC(C)(C)C(=O)O)c2csc(N)n2)C(=O)N1S(=O)(=O)O [Reference Compound I, Aztreonam]
β-lactamase inhibitory properties (β-lactamase): possesses β-lactamase inhibitory properties | IC50 [1]: 130 nM

IC50 [1]: 300 nM
SMILES: C[C@H]1[C@H](NC(=O)/C(=N/OC(CN)CO)c2cccs2)C(=O)N1S(=O)(=O)O (some centres unmarked) [Compound 8]

IC50 [1]: 80 nM
SMILES: C[C@H]1[C@H](NC(=O)/C(=N/OCCNCCN)c2cccs2)C(=O)N1S(=O)(=O)O [Compound 7]

IC50 [1]: 400 nM
SMILES: C[C@H]1[C@H](NC(=O)/C(=N/OC(CN)CN)c2cccs2)C(=O)N1S(=O)(=O)O [Compound 3, (3S)-trans-3-[(E)-2-(2-Thienyl)-2-{1,3-diamino-prop-2-oxyimino}acetamido]-4-methyl-2-oxoazetidine-1-sulfonic acid, triflate salt]

IC50 [1]: 80 nM
SMILES: CC(N)CO/N=C(/C(=O)N[C@@H]1C(=O)N(S(=O)(=O)O)[C@H]1C)c1cccs1 (stereo partly drawn) [Compound 10, (3S)-trans-3-[(E)-2-(2-Thienyl-2-{(2-amino)-prop-1-oxyimino}acetamido]-4-methyl-2-oxoazetidine-1-sulfonic acid, inner salt]

IC50 [1]: 200 nM
SMILES: CC(CN)O/N=C(/C(=O)N[C@@H]1C(=O)N(S(=O)(=O)O)[C@H]1C)c1cccs1 (some centres unmarked) [Compound 11]

IC50 [1]: 80 nM
SMILES: C[C@H]1[C@H](NC(=O)/C(=N/OCC(N)CO)c2cccs2)C(=O)N1S(=O)(=O)O (stereo partly drawn) [Compound 9, (3S)-trans-3-[(E)-2-(2-Thienyl)-2-{1-hydroxy-2-amino-prop-3-oxyimino}acetamido]-4-methyl-2-oxoazetidine-1-sulfonic acid, inner salt]

SMILES: CC(C)(O/N=C(\C(=O)N[C@@H]1C(=O)N2C(C(=O)[O-])=C(C[n+]3ccccc3)CS[C@H]12)c1csc(N)n1)C(=O)O [ceftazidime]
MIC (P. aeruginosa CT-137): 8 µg/mL | MIC (P. aeruginosa AU-10): > 32 µg/mL | MIC (P. aeruginosa AU-5): > 32 µg/mL | MIC (P. aeruginosa CT-144): 32 µg/mL | MIC (P. aeruginosa 46017): > 32 µg/mL | MIC (P. aeruginosa CT-122): 16 µg/mL | MIC [2]: > 32 µg/mL | MIC (P. aeruginosa 46220 DR-2): 16 µg/mL | MIC (P. aeruginosa M2297): > 32 µg/mL | MIC (M. morganii 36010): > 32 µg/mL | MIC (E. cloacae 40054): > 32 µg/mL | MIC (E. cloacae MNH-2): > 32 µg/mL | MIC (E. cloacae P 99): > 32 µg/mL | MIC (C. freundii 44032): > 32 µg/mL | MIC (E. aerogenes S-95): > 32 µg/mL | MIC (E. aerogenes 41006): > 32 µg/mL | MIC (C. freundii CT-76): > 32 µg/mL | MIC (P. aeruginosa L46004): > 32 µg/mL | MIC (P. aeruginosa M 1405): > 32 µg/mL | MIC (M. morganii 36030): > 32 µg/mL | MIC (P. aeruginosa AU-8): > 32 µg/mL | MIC (M. morganii 36014): > 32 µg/mL | MIC (P. aeruginosa 46012): > 32 µg/mL | MIC (P. aeruginosa AU-1): > 32 µg/mL | MIC [3]: 32 µg/mL | MIC [4]: > 32 µg/mL

IC50 [1]: 20 nM
SMILES: C[C@H]1[C@H](NC(=O)/C(=N/OCCCN)c2cccs2)C(=O)N1S(=O)(=O)O [Compound 2]

IC50 [1]: 20 nM
SMILES: C[C@H]1[C@H](NC(=O)/C(=N/OCCN)c2cccs2)C(=O)N1S(=O)(=O)O [Compound 1]

IC50 [1]: 100 nM
SMILES: C[C@H]1[C@H](NC(=O)/C(=N/OC[C@@H](N)CCN)c2cccs2)C(=O)N1S(=O)(=O)O [Compound 5]

IC50 [1]: 1090 nM
SMILES: C[C@H]1[C@H](NC(=O)/C(=N/OC(CN)CNC(=N)N)c2cccs2)C(=O)N1S(=O)(=O)O (some centres unmarked) [Compound 12]

IC50 [1]: 65 nM
SMILES: C[C@H]1[C@H](NC(=O)/C(=N/OCC(N)CN)c2cccs2)C(=O)N1S(=O)(=O)O (some centres unmarked) [Compound 4]
